Key:
boll weevil larvae [1] = assay: Boll weevil larvae bioassay (agar liquid diet); conditions: in vivo
Description: Boll Weevil Larvae Bioassay
Assays for activity against boll weevil larvae are carried out by incorporating the test sample into a agar liquid diet similar to that for southern corn rootworm [Marrone P. G., Ferri F. D., Mosley T. R., Meinke L. J., “Improvements in laboratory rearing of the southern corn rootworm, Diabrotica undecimpunctata howardi Barber (Coleoptera: Chrysomelidae) on artificial diet and corn,” Journal of Economic Entomology, 78:290-3, 1985]. The test sample is substituted for the 20% water component. Neonate larvae are allowed to feed on the diet and mortality and growth stunting are evaluated.

Lepidopteran larvae = Lepidopteran larvae bioassay (artificial diet); set-up: species or system lepidopteran insects; conditions: in vivo
Description: Lepidopteran Larvae Bioassay
Lepidopteran larvae are tested on artificial diet treated with various amounts of oxalate for a number of days.

adult boll weevils = assay: Boll weevil reproduction test; assay type: in vivo; conditions: oxalate in standard diet
Description: Preoviposition: Approximately 220 adult boll weevils, collected within 2 days of emergence, are divided into two groups. […] The adults are allowed to feed and mate for four days at which time mortality is determined. Oviposition study: These two groups of adults are then divided into two subgroups and individually placed on artificial, oxalate-containing or control bolls. […] After three days at 27% C, the adults are removed and ten bolls from each of the four groups are removed and examined for eggs. The remaining bolls are incubated for an additional 7 days at 27% C to allow development of larvae. The bolls are then dissected and the eggs and larvae, dead and surviving, are counted. • Group 1=Control Adults placed on control bolls • Group 2=Control Adults placed on treated bolls • Group 3=oxalate-fed adults placed on control bolls • Group 4=oxalate-fed adults placed on treated bolls Mode of Action Studies

boll weevil larvae [2] = assay: Cotton seed diet assay; assay type: in vivo; conditions: cottonseed flour diets, after six days, in the presence of cotton plant components
Description: Two treatment diets are made by mixing 30 g of one of two types of cottonseed flour into 170 mL of a 1.6% agar solution at 50% C, containing 0.13% propionic acid, 0.014% phosphoric acid, and 30 mg each of streptomycin sulfate and chlortetracycline. Before mixing, 10% KOH was used to adjust the pH to 6.2. One test diet utilized raw cottonseed flour (Sigma) as the nutrient source; the other utilized Pharmamedia.™. (Traders Protein), a flour made up of cottonseed embryos. The diets were incubated in a water bath at 40% C. Dilutions of the oxalate are incorporated into the diets as described above. Boll weevil larvae are allowed to feed and mortality rates are determined after six days.

boll weevil larvae [3] = assay: Homogenized cotton leaf tissue assay; assay type: in vivo; conditions: cotton leaf tissue agar diet, evaluated six days later
Description: Homogenized Cotton Leaf Tissue Assay In order to test oxalate against boll weevil larvae in a host tissue diet environment, a study is conducted in which cotton leaf tissue is the only nutritional component of an agar-based diet. Two cotton leaves (each approx. 5 inches wide) with stems are homogenized at 50% C into 170 mL of a 1.6% agar solution containing 0.13% propionic acid, 0.014% phosphoric acid, and 30 mg each of streptomycin sulfate and chlortetracycline. Before addition of the leaves, 10% KOH is used to adjust the pH of the agar solution to 6.2. The leaf “diet” is allowed to cool to 40% C. Dilutions of oxalate and a water control are incorporated into the leaf “diet”, poured into insect diet trays and allowed to cool. Boll weevil eggs are added to the diet wells. The assay is evaluated six days later. […] This will illustrate that the oxalate is insecticidal in the presence of intact cotton tissue and cells.

In the case of `O=C(O)C(=O)O` [Oxalate, oxalic acid], the “effect on boll weevil larvae” value (boll weevil larvae [1]) is reported as “lethal”, the “mortality and stunting of larvae of lepidopteran insects” value (Lepidopteran larvae) is reported as “mortality and stunting” and the “effect on reproductive cycle of adult boll weevils” value (adult boll weevils) is reported as “affect the reproductive cycle”. For the same compound, the “effect on reproductive cycle of adult boll weevils” value (adult boll weevils; listed as Oxlate) was “interrupt the reproductive cycle”, the “mortality of boll weevil larvae” value (boll weevil larvae [2]) was “lethal” and the “insecticidal activity in the presence of cotton leaf tissue” value (boll weevil larvae [3]) was “maintains its insecticidal activity”.

Source: patent US20060014641A1 (priority 2004, published 2006)
